Data as given in ChEMBL document CHEMBL6134841, “3,5-Dihydroxybenzoic Acid as a Potent Inhibitor of Tyrosine Phenol-Lyase Decreases Fecal Phenol Levels in Mice” (J Med Chem, 2025).
pKi: −log10 of the molar value. The source made the active and inactive calls. The rule behind the calls is not given here.

Experiments:
Morganella morganii [1] = assay: Inhibition of recombinant Morganella morganii JCM1672 TPL extracted from Escherichia coli BL21(DE3) assessed as decrease in phenol production incubated for 3 mins in presence of PLP/L-Tyr by LC-MS analysis
[2] = Competitive inhibition of bacterial TPL assessed as decrease in phenol production incubated for 3 mins in presence of PLP/L-Tyr by LC-MS analysis; parameters: species or system Bacteria
Citrobacter koseri [3] = assay: Inhibition of recombinant Citrobacter koseri JCM1658 TPL extracted from Escherichia coli BL21(DE3) assessed as decrease in phenol production incubated for 3 mins in presence of PLP/L-Tyr by LC-MS analysis
Citrobacter koseri [4] = assay: Inhibition of TPL in Citrobacter koseri JCM1658 assessed as decrease in phenol production at 100 to 500 uM incubated for 3 hrs by absorbance based analysis relative to control; conditions: dose 100-500 µM
Morganella morganii [5] = assay: Inhibition of TPL in Morganella morganii JCM1672 assessed as decrease in phenol production at 500 uM incubated for 0.5 to 3 hrs by absorbance based analysis; conditions: time 0.5-3 hrs
Morganella morganii [6] = assay: Inhibition of TPL in Morganella morganii JCM1672 assessed as decrease in phenol production at 100 uM incubated for 1 hr by absorbance based analysis
Morganella morganii [7] = assay: Inhibition of cell growth in Morganella morganii JCM1672 up to 500 uM incubated up to 24 hrs; type: functional, organism-based
Morganella morganii [8] = assay: Inhibition of TPL in Morganella morganii JCM1672 assessed as decrease in phenol production at 100 to 500 uM incubated for 3 hrs by absorbance based analysis relative to control; conditions: dose 100-500 µM
Mus musculus [9] = assay: Effect on fecal phenol level in C57BL/6J mouse administered orally measured after 7 days by LC-MS analysis; type: functional, organism-based; conditions: route po, time 7.0 day
Morganella morganii [10] = assay: Effect on TPL expression in Morganella morganii JCM1672 up to 500 uM by immunoblot analysis; type: functional
Citrobacter koseri [11] = assay: Inhibition of cell growth in Citrobacter koseri JCM1658 up to 500 uM incubated up to 24 hrs; type: functional, organism-based
Mus musculus [12] = assay: In vivo inhibition of TPL in C57BL/6J mouse assessed as reduction in L-Tyr-induced fecal phenol level administered orally measured after 14 days by LC-MS analysis; type: functional, organism-based; conditions: route po, time 14.0 day
Citrobacter koseri [13] = assay: Effect on TPL expression in Citrobacter koseri JCM1658 up to 500 uM by immunoblot analysis; type: functional
Mus musculus [14] = assay: In vivo inhibition of TPL in feces of C57BL/6J mouse administered orally measured after 14 days by immunoassay; type: functional, organism-based; conditions: route po, time 14.0 day
Citrobacter koseri [15] = assay: Inhibition of TPL in Citrobacter koseri JCM1658 assessed as decrease in phenol production incubated for 0.5 to 3 hrs by absorbance based analysis; conditions: dose 100-500 µM, time 0.5-3 hrs

Row | SMILES | inhibition (Morganella morganii [1]) | pKi [2] | also measured
1 | COc1cc(C(=O)O)ccc1O | inactive | – | –
2 | O=C(O)c1cccc(O)c1 [3-HYDROXYBENZOIC ACID] | Active | 4.45 | –
3 | COc1ccc(C(=O)O)cc1O [ISOVANILLIC ACID] | Active | 4.35 | –
4 | Oc1ccccc1O | inactive | – | –
5 | COc1ccc(C(=O)O)cc1OC | inactive | – | –
6 | O=C(O[C@@H]1Cc2c(O)cc(O)cc2O[C@@H]1c1cc(O)c(O)c(O)c1)c1cc(O)c(O)c(O)c1 | Active | – | inhibition (Citrobacter koseri [3]): Active
7 | O=C(O)Cc1ccc(O)c(O)c1 | inactive | – | –
8 | O=C(O)c1cccnc1 | inactive | – | –
9 | Oc1cccc(O)c1 | inactive | – | –
10 | O=C(O)c1cc(O)cc(O)c1 [3,5-DIHYDROXYBENZOIC ACID] | Active | 4.59 | Imax (Citrobacter koseri [4]): 56.2%; inhibition (Morganella morganii [5]): Active; inhibition (Morganella morganii [6]): Active; inhibition (Morganella morganii [7]): inactive; Imax (Morganella morganii [8]): 29.3%; Activity (Mus musculus [9]): No effect; Activity (Morganella morganii [10]): No effect; inhibition (Citrobacter koseri [11]): inactive; inhibition (Mus musculus [12]): Active; Activity (Citrobacter koseri [13]): No effect; inhibition (Mus musculus [14]): Active; Tpl Expression Was Below The Detection Limit; inhibition (Citrobacter koseri [15]): Dose-dependent-effect
11 | O=C(O)c1ccccc1 | inactive | – | –
12 | Oc1cccc(O)c1O | inactive | – | –
13 | O=C(O)c1ccc(O)nc1 | inactive | – | –
14 | O=C(O)c1ccc(O)c(O)c1 [PROTOCATECHUIC ACID] | Active | 4.34 | –
15 | O=C(O)c1cncc(O)c1 | Active | – | –
16 | O=C(O[C@@H]1Cc2c(O)cc(O)cc2O[C@@H]1c1ccc(O)c(O)c1)c1cc(O)c(O)c(O)c1 | Active | – | inhibition (Citrobacter koseri [3]): Active
17 | O=C(O)c1ccc(O)cc1 | inactive | – | –
18 | O=C(O)c1cc(O)c(O)c(O)c1 [GALLIC ACID] | Active | 4.14 | inhibition (Citrobacter koseri [3]): Active
19 | N[C@@H](Cc1ccc(O)cn1)C(=O)O | – | 3.89 | –
